# Values joined by “and” are separate entries in the source; they are usually repeats but may differ in a detail not shown here. Equal values may be shown once.
# Biological target: T1, CETP (Homo sapiens, UniProt P11597)
# T1 construct: endogenous in cells; host or cells: trial patients (in vivo, circulating plasma CETP)
# T1 sequence (P11597 18-493): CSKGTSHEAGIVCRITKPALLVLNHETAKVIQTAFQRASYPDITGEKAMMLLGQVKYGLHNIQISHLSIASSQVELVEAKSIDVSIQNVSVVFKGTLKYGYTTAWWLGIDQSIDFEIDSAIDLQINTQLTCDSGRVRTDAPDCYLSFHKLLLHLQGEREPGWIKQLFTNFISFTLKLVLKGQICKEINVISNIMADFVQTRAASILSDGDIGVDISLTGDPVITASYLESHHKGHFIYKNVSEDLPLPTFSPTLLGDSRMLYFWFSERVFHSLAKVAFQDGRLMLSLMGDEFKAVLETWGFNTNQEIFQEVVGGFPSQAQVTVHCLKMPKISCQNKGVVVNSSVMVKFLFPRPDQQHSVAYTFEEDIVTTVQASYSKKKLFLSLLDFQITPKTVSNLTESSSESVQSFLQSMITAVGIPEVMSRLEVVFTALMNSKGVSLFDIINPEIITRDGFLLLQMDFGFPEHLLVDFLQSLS
# Test: Placebo-controlled, double-blind, randomized phase 2 study of obicetrapib as adjunct to high-intensity statin therapy: lipoprotein lipid and apolipoprotein responses
# Type: in vivo
# Details: for LDL-C by PUC, % Change from Baseline LS mean (95% CI) / LDL-C reduced from baseline (Friedewald formula) / Apo B reduced by / Lp(a) reduced by / non-HDL-C reduced by: 8 weeks; for LDL-C by PUC, % Change from Baseline LS mean (95% CI) / Apo A1 Week 8 change, LS Mean ± SE / Apo B Week 8 change, LS Mean ± SE / HDL-C Week 8 change, LS Mean ± SE / LDL-C (Martin-Hopkins) Week 8 change, LS Mean ± SE / Lp(a) Week 8 change, LS Mean ± SE / Non-HDL-C Week 8 change, LS Mean ± SE / TG Week 8 change, LS Mean ± SE / VLDL-C Week 8 change, LS Mean ± SE / LDL-C (PUC) Week 8 change, LS Mean ± SE / LDL-C reduced from baseline (Friedewald formula) / Apo B reduced by / Lp(a) reduced by / non-HDL-C reduced by: adjunct to high-intensity statin; for LDL-C by PUC, % Change from Baseline LS mean (95% CI): Table 3; for Apo A1 Week 8 change, Median (min, max) / LDL-C (Martin-Hopkins) Week 8 change, Median (min, max) / Lp(a) Week 8 change, Median (min, max) / TG Week 8 change, Median (min, max) / VLDL-C Week 8 change, Median (min, max): adjunct to high-intensity statin therapy; for Apo A1 Week 8 change, LS Mean ± SE / Apo B Week 8 change, LS Mean ± SE / HDL-C Week 8 change, LS Mean ± SE / LDL-C (Martin-Hopkins) Week 8 change, LS Mean ± SE / Lp(a) Week 8 change, LS Mean ± SE / Non-HDL-C Week 8 change, LS Mean ± SE / TG Week 8 change, LS Mean ± SE / VLDL-C Week 8 change, LS Mean ± SE / LDL-C by Friedewald, % Change from Baseline LS mean: MMRM; for LDL-C (PUC) Week 8 change, LS Mean ± SE: analysis of covariance model, Table 9; for ApoB, % change from Baseline Median / HDL-C, % change from Baseline Median / LDL-C by Friedewald, % Change from Baseline (median) / LDL-C by PUC, % Change from Baseline (median) / Non-HDL-C, % Change from Baseline (median): week 8, adjunct to high-intensity statin therapy; for LDL-C by Friedewald, % Change from Baseline LS mean: week 8, adjunct to high-intensity statin; for LDL-C reduced from baseline (Friedewald formula): primary analysis; for LDL-C reduced from baseline (Friedewald formula) / Apo B reduced by / Lp(a) reduced by / non-HDL-C reduced by: stated as reduction
# Protocol: To evaluate the efficacy, safety, and tolerability of obicetrapib as an adjunct to high-intensity statin therapy, a placebo-controlled, double-blind, randomized, phase 2 study was carried out.
# The study consisted of three arms: 1) 5 mg obicetrapib as adjunctive therapy; 2) 10 mg obicetrapib as adjunctive therapy and 3) a placebo arm. The second objective was to evaluate other lipoprotein lipid and apolipoprotein responses, safety and tolerability profiles, and plasma concentrations of obicetrapib during treatment and for several weeks of follow-up. Lastly, this study aimed to determine if different quantitative measures of LDL-C levels produced differences in the treatment effects of CETP inhibition.
# This randomised, double-blind, placebo-controlled, parallel-group phase 2 trial was conducted in male and female patients (18-75 years), treated with high-intensity statin therapy, with LDL-C levels >70 mg/DL and TG levels < 400 mg/dL. Key exclusion criteria were patients with BMI > 40 kg/m; Significant cardiovascular disease; HbA1c > 10%; Uncontrolled hypertension; Active muscle disease; GFR < 60 ml/min; Hepatic dysfunction; Anemia; History of malignancy; Alcohol abuse; Treatment with investigational product; Treatment with PCSK9 inhibitor; Clinically significant condition; and/or prior exposure to a CETP inhibitor. Patients were recruited at 19 sites in the United States. The trial was approved by Independent Ethics Committees, and each patient provided written informed consent. The trial was conducted in accordance with the principles of the Declaration of Helsinki and Good Clinical Practice Guidelines and the protocol was registered on ClinicalTrials.gov (NCT04753606).
# The screening period for this study took up to 2-weeks. Afterwards patients were randomized to placebo, 5 mg obicetrapib or 10 mg obicetrapib for an 8-week treatment period. After the treatment period, patients continued for a 4-week safety follow-up and a 15-week PK follow-up.
# Patients were randomly assigned to receive one of the three treatments investigative treatments. All treatments were to be taken once daily with food for 8 weeks. Safety was assessed throughout the trial by monitoring adverse events and concomitant medication use, 12-lead electrocardiograms (ECGs), vital signs, laboratory safety assessments and physical examinations. Additional assessments included salivary cortisol, plasma aldosterone, high-sensitivity C-reactive protein (hsCRP) and endothelin 1.
# Efficacy assessments included fasted lipid profiles including total cholesterol (TC), HDL-C, LDL-C, triglycerides, apolipoprotein B (ApoB), and derived parameters.
# Total cholesterol and triglycerides were measured by homogenous enzymatic assay using a Modular analyser (cholesterol oxidase peroxidase-peroxidase aminophenazone phenol [CHOP-PAP]) method and a glycerol phosphate oxidase [GPO-PAP] method, respectively. Apolipoprotein B was measured by immunoturbidimetry using reagents from Rolf Greiner Biochemica (Germany) and N apoprotein standard serum from Siemens (Germany). LDL particle size was determined by gradient gel electrophoresis. HDL fraction was separated by a combined ultracentrifugation-precipitation method (β-quantification). HDL-2 and HDL-3 fractions were then separated by further ultracentrifugation. Total-cholesterol in HDL, HDL 2 and HLD-3 fractions, free cholesterol in HDL fraction, triglycerides in HDL fraction and phospholipids in plasma and HDL-fraction were measured using enzymatic methods and reagents from Diasys Diagnostics (Germany). The measurements were performed on an Olympus AU600 automatic analyzer and were calibrated using secondary standards from Roche Diagnostics (total-cholesterol, triglycerides) and Diasys Diagnostics (free cholesterol, phospholipids), respectively. Esterified cholesterol was calculated as the difference between total-cholesterol and free cholesterol.
# The primary outcome measure was LDL-C (percent change). […]
# [1] = 5 mg once daily for 8 weeks as adjunct to high-intensity statin therapy
# [2] = 5 mg once daily, listed as obicetrapib
# [3] = 10 mg once daily for 8 weeks as adjunct to high-intensity statin therapy
# [4] = 10 mg once daily, listed as obicetrapib
compound,measurement,setting,value
"CCOC(=O)N1c2ccc(C(F)(F)F)cc2[C@@H](N(Cc2cc(C(F)(F)F)cc(C(F)(F)F)c2)c2ncc(OCCCC(=O)O)cn2)C[C@H]1CC [Obicetrapib, (2R,4S)-4-{[3,5-bis(trifluoromethyl)benzyl]-[5-(3-carboxypropoxy)pyrimidin-2-yl]amino}-2-ethyl-6-trifluoromethyl-3,4-dihydro-2H-quinoline-1-carboxylic acid ethyl ester]","ApoB, Change from Baseline Median mg/dL",[1],-22.0 mg/dL
same,"ApoB, EoT Median",[1],65.0 mg/dL
same,"HDL-C, Change from Baseline Median mg/dL",[1],60.0 mg/dL
same,"HDL-C, EoT Median",[1],107.0 mg/dL
same,"LDL-C by Friedewald, EoT Median",[1],51.0 mg/dL
same,"LDL-C by PUC, EoT Median",[1],53.0 mg/dL
same,"Non-HDL-C, EoT Median",[1],71 mg/dL
same,"LDL-C by PUC, % Change from Baseline LS mean (95% CI)",5 mg once daily,-37.98%
same,"Apo A1 Week 8 change, Median (min, max)",5 mg once daily,"44.6% and 44.6 (-10.0, 87.1) %"
same,"LDL-C (Martin-Hopkins) Week 8 change, Median (min, max)",5 mg once daily,"-42.5 (-80.8, 74.4) %"
same,"Lp(a) Week 8 change, Median (min, max)",5 mg once daily,"-33.8 (-84.6, 93.8) %"
same,"TG Week 8 change, Median (min, max)",5 mg once daily,"-11.0 (-53.3, 86.7) %"
same,"VLDL-C Week 8 change, Median (min, max)",5 mg once daily,"-11.5 (-53.5, 83.3) %"
same,"TG Week 8 change, Median (min, max)",[2],-11.0%
same,"VLDL-C Week 8 change, Median (min, max)",[2],-11.5%
same,"Apo A1 Week 8 change, LS Mean ± SE",5 mg once daily,41.1 ± 3.04%
same,"Apo B Week 8 change, LS Mean ± SE",5 mg once daily,-22.4 ± 2.58%
same,"HDL-C Week 8 change, LS Mean ± SE",5 mg once daily,122 ± 6.59%
same,"LDL-C (Martin-Hopkins) Week 8 change, LS Mean ± SE",5 mg once daily,-39.6 ± 3.68%
same,"Lp(a) Week 8 change, LS Mean ± SE",5 mg once daily,-30.9 ± 4.43%
same,"Non-HDL-C Week 8 change, LS Mean ± SE",5 mg once daily,-34.4 ± 3.18%
same,"TG Week 8 change, LS Mean ± SE",5 mg once daily,-6.63 ± 5.32%
same,"VLDL-C Week 8 change, LS Mean ± SE",5 mg once daily,-6.02 ± 5.24%
same,"LDL-C (PUC) Week 8 change, LS Mean ± SE",5 mg once daily,-35.7 ± 3.31%
same,"ApoB, % change from Baseline Median",5 mg once daily,"-24.40% and -24.4 (-58.5, 47.4) %"
same,"HDL-C, % change from Baseline Median",5 mg once daily,"135% and 135.4% and 135 (-26.4, 213) %"
same,"LDL-C by Friedewald, % Change from Baseline (median)",5 mg once daily,"-42.90% and -42.9 (-81.9, 72.4) %"
same,"LDL-C by PUC, % Change from Baseline (median)",5 mg once daily,"-41.5% and -41.45% and -41.5 (-71.2, 62.3) %"
same,"Non-HDL-C, % Change from Baseline (median)",5 mg once daily,"-38.9% and -38.9 (-65.6, 66.3) %"
same,"LDL-C by PUC, % Change from Baseline (median)",[2],-41.5%
same,"LDL-C by Friedewald, % Change from Baseline LS mean",5 mg once daily,-37.94% and -38.0 ± 3.49%
same,LDL-C reduced from baseline (Friedewald formula),5 mg,42.9%
same,Apo B reduced by,5 mg,24.4%
same,Lp(a) reduced by,5 mg,33.8%
same,non-HDL-C reduced by,5 mg,38.9%
same,"ApoB, Change from Baseline Median mg/dL",[3],-24.5 mg/dL
same,"ApoB, EoT Median",[3],58.5 mg/dL
same,"HDL-C, Change from Baseline Median mg/dL",[3],72.0 mg/dL
same,"HDL-C, EoT Median",[3],117.5 mg/dL
same,"LDL-C by Friedewald, EoT Median",[3],52.0 mg/dL
same,"LDL-C by PUC, EoT Median",[3],49.5 mg/dL
same,"Non-HDL-C, EoT Median",[3],69 mg/dL
same,"LDL-C by PUC, % Change from Baseline LS mean (95% CI)",10 mg once daily,-44.15%
same,"Apo A1 Week 8 change, Median (min, max)",10 mg once daily,"47.8% and 47.8 (13.5, 106) %"
same,"LDL-C (Martin-Hopkins) Week 8 change, Median (min, max)",10 mg once daily,"-49.2 (-77.0, 28.1) %"
same,"Lp(a) Week 8 change, Median (min, max)",10 mg once daily,"-56.5 (-85.7, 18.3) %"
same,"TG Week 8 change, Median (min, max)",10 mg once daily,"-7.85 (-63.7, 129) %"
same,"VLDL-C Week 8 change, Median (min, max)",10 mg once daily,"-7.90 (-44.4, 125) %"
same,"LDL-C (Martin-Hopkins) Week 8 change, Median (min, max)",[4],-49.2%
same,"Apo A1 Week 8 change, LS Mean ± SE",10 mg once daily,52.3 ± 3.04%
same,"Apo B Week 8 change, LS Mean ± SE",10 mg once daily,-28.1 ± 2.56%
same,"HDL-C Week 8 change, LS Mean ± SE",10 mg once daily,157 ± 6.54%
same,"LDL-C (Martin-Hopkins) Week 8 change, LS Mean ± SE",10 mg once daily,-46.9 ± 3.65%
same,"Lp(a) Week 8 change, LS Mean ± SE",10 mg once daily,-42.0 ± 4.33%
same,"Non-HDL-C Week 8 change, LS Mean ± SE",10 mg once daily,-39.9 ± 3.15%
same,"TG Week 8 change, LS Mean ± SE",10 mg once daily,2.45 ± 5.27%
same,"VLDL-C Week 8 change, LS Mean ± SE",10 mg once daily,3.08 ± 5.19%
same,"LDL-C (PUC) Week 8 change, LS Mean ± SE",10 mg once daily,-46.8 ± 3.23%
same,"ApoB, % change from Baseline Median",10 mg once daily,"-29.75% and -29.8 (-58.4, 13.0) %"
same,"HDL-C, % change from Baseline Median",10 mg once daily,"165% and 165 (55.1, 286) %"
same,"LDL-C by Friedewald, % Change from Baseline (median)",10 mg once daily,"-45.65% and -45.7 (-78.0, 26.2) %"
same,"LDL-C by PUC, % Change from Baseline (median)",10 mg once daily,"-50.8% and -50.75% and -50.8 (-76.9, 15.6) %"
same,"Non-HDL-C, % Change from Baseline (median)",10 mg once daily,"-44.4% and -44.4 (-70.2, 22.5) %"
same,"LDL-C by PUC, % Change from Baseline (median)",[4],-50.8%
same,"LDL-C by Friedewald, % Change from Baseline LS mean",10 mg once daily,-44.15% and -44.2 ± 3.46%
same,LDL-C reduced from baseline (Friedewald formula),10 mg,45.7%
same,Apo B reduced by,10 mg,29.8%
same,Lp(a) reduced by,10 mg,56.5%
same,non-HDL-C reduced by,10 mg,44.4%
same,median Apo B reductions from baseline,"10 mg, post-hoc analysis, individuals with baseline Apo B >100 mg/dL",39%
